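96-well plates; 48 h exposure; 5 concentrations. Endpoints by linear interpolation between flanking doses. Not reached: highest tested concentration assigned. Abbreviation: GI50, concentration required for 50% inhibition of growth.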 The source made the active and inactive calls. No stated cut-off is given here; in the data, active = GI50 up to about 1.1 µM and inactive = higher. Where only a bound is given, the exact number is not on record here.

Consider 8 molecules from ChEMBL document CHEMBL1201862, “PubChem BioAssay data set” (2004).

Test systems include HCT-15; OVCAR-5; MDA-N; NCI-H460; MOLT-4; EKVX; OVCAR-4; DU-145; HCT-116; UO-31; SW-620; SK-OV-3; ACHN; COLO 205; M14; PC-3; SN12C; SNB-19; MDA-MB-231; T47D.
What all share (assay): NCI anticancer screen, dose series, 48 h

Regarding `C/C(=N/NC(=S)Nc1cccc(C)c1)c1ccccn1`, the GI50 is 0.0119 µM in the assay on HCT-15; 0.0392 µM (active) in the assay on OVCAR-5; 1.35 µM (inactive) in the assay with MDA-N; 0.284 µM (active) with NCI-H460; < 0.01 µM (active) with MOLT-4; 0.0685 µM (active) in the assay with EKVX. Further, the GI50 in the assay on OVCAR-4 is 1.98 µM (inactive); in the assay with DU-145, 2.19 µM (inactive); in the assay with HCT-116, < 0.01 µM (active); with UO-31, 0.285 µM (active); in the assay with SW-620, < 0.01 µM (active); in the assay with SK-OV-3, 0.025 µM (active). For the same molecule, the GI50 in the assay with ACHN is < 0.0481 µM (active); with COLO 205, < 0.01 µM (active); with M14, < 0.013 µM (active); with PC-3 it was < 0.01 µM (active); in the assay with SN12C, 0.226 µM (active); in the assay on SNB-19, 0.977 µM (active). Moreover, the GI50 in the assay with MDA-MB-231 was < 0.01 µM (active).
As to `O=c1[nH]n(Cc2ccccc2CCl)c2ccc([N+](=O)[O-])cc12`, the GI50 in the assay on HCT-15 is 60.8 µM; in the assay with OVCAR-5 it was > 100 µM (inactive); with MDA-N, 62.1 µM (inactive); in the assay on NCI-H460, 23.8 µM (inactive); in the assay on MOLT-4, 26.6 µM (inactive); with EKVX it was 45.2 µM (inactive). The GI50 in the assay on OVCAR-4 is 37.1 µM (inactive); in the assay with DU-145, 59.7 µM (inactive); in the assay with HCT-116, 41.4 µM (inactive); in the assay on UO-31, 88.3 µM (inactive); in the assay on SW-620, 49 µM (inactive); with SK-OV-3 it was 27.7 µM (inactive). The GI50 with ACHN was 55.3 µM (inactive); in the assay with COLO 205, 26.1 µM (inactive); in the assay with M14, 39.2 µM (inactive); with PC-3 it was 31.3 µM (inactive); in the assay on SN12C it was 52.7 µM (inactive); in the assay with SNB-19 it was 48.9 µM (inactive). Also, the GI50 with MDA-MB-231 was 38.4 µM (inactive).
Turning to `O=C(O)CN(CC(=O)O)Cc1cc(C#Cc2ccc(C#Cc3ccccc3)cc2)cc(CN(CC(=O)O)CC(=O)O)n1`, the GI50 with HCT-15 is 5.98 µM; with OVCAR-5, 26.4 µM (inactive); with MDA-N, 35.6 µM (inactive); with NCI-H460, 17.7 µM (inactive); in the assay with MOLT-4, 8.91 µM (inactive); with EKVX, 20.3 µM (inactive). Besides, the GI50 in the assay on OVCAR-4 is 10.2 µM (inactive); in the assay with DU-145, 17.3 µM (inactive); with HCT-116, 8.87 µM (inactive); in the assay with UO-31, 5.68 µM (inactive); with SW-620, 15.7 µM (inactive); in the assay with SK-OV-3 it was 56 µM (inactive). Besides, the GI50 is 32 µM (inactive) with ACHN; 11.5 µM (inactive) in the assay on COLO 205; 22.9 µM (inactive) with M14; 4.12 µM (inactive) with PC-3; 19.7 µM (inactive) with SN12C; 5.75 µM (inactive) with SNB-19. Also, in the assay on MDA-MB-231, the GI50 was 7.11 µM (inactive).
For the molecule `CC1(C)N=C2C(=O)c3c([nH]c4ccccc34)[C@]3(C)CCC1CC23` (stereo partly specified), the GI50 in the assay with HCT-15 was more than 6.25 µM; in the assay on OVCAR-5 it was > 6.25 µM (inactive); in the assay with MDA-N, > 6.25 µM (inactive); in the assay with NCI-H460 it was > 6.25 µM (inactive); in the assay with MOLT-4, > 6.25 µM (inactive); in the assay on EKVX, > 6.25 µM (inactive). Further, the GI50 in the assay with OVCAR-4, with DU-145, with HCT-116, in the assay on UO-31, in the assay with SW-620 and in the assay on ACHN was > 6.25 µM (inactive) in each case. In addition, the GI50 in the assay on COLO 205, in the assay on PC-3, in the assay on SN12C and in the assay with MDA-MB-231 was > 6.25 µM (inactive) throughout.
Regarding `COC(=O)c1nc2c(C)c(O)c(O)c([C@H](C)CCC=C(C)C)c2o1`, the GI50 with HCT-15 is 14 µM; with OVCAR-5, 58.6 µM (inactive); with NCI-H460 it was 46.5 µM (inactive); in the assay on MOLT-4, 24.9 µM (inactive); with EKVX, 29.7 µM (inactive); in the assay with T47D it was 39.8 µM (inactive). In addition, the GI50 is 30.1 µM (inactive) in the assay with OVCAR-4; 65.5 µM (inactive) in the assay with DU-145; 8.34 µM (inactive) in the assay on HCT-116; 17.7 µM (inactive) with UO-31; 39.5 µM (inactive) with SW-620; 40.6 µM (inactive) in the assay on SK-OV-3. For the same molecule, the GI50 in the assay on ACHN was 22.6 µM (inactive); in the assay on COLO 205, 16.2 µM (inactive); in the assay with M14 it was 37.3 µM (inactive); in the assay on PC-3 it was 26.6 µM (inactive); in the assay with SNB-19, 38.5 µM (inactive); in the assay with MDA-MB-231, 45.1 µM (inactive).
On to `S=C(N/N=C(/c1ccccc1)c1ccccn1)Nc1ccc(Cl)cc1`, for which the GI50 in the assay with HCT-15 was 0.067 µM; with OVCAR-5, 0.0705 µM (active); in the assay with MDA-N, 1.09 µM (active); with NCI-H460, 0.531 µM (active); with MOLT-4, < 0.0171 µM (active); in the assay on EKVX it was 0.462 µM (active). For the same molecule, the GI50 in the assay with OVCAR-4 was 5.06 µM (inactive); in the assay with DU-145, 1.87 µM (inactive); in the assay on HCT-116, < 0.0162 µM (active); with UO-31, 0.543 µM (active); in the assay on SW-620 it was 0.0423 µM (active); in the assay on SK-OV-3, 0.175 µM (active). The GI50 in the assay with ACHN was 0.322 µM (active); in the assay with COLO 205 it was 0.0418 µM (active); in the assay with M14, 0.03 µM (active); in the assay with PC-3, 0.0476 µM (active); in the assay with SN12C, 0.211 µM (active); in the assay with SNB-19 it was 3.02 µM (inactive). Further, the GI50 in the assay on MDA-MB-231 is < 0.0106 µM (active).
In the case of `O=c1c(Cl)cc2nc3ccccc3sc-2c1Cl`, the GI50 with HCT-15 was 14.7 µM; in the assay with OVCAR-5 it was 24.7 µM (inactive); in the assay on NCI-H460 it was 18 µM (inactive); in the assay on MOLT-4, 3.61 µM (inactive); with EKVX it was 3.22 µM (inactive); in the assay on T47D it was 5 µM (inactive). Further, the GI50 is 13.2 µM (inactive) in the assay with OVCAR-4; 12.9 µM (inactive) in the assay with DU-145; 16.2 µM (inactive) in the assay on HCT-116; 15.3 µM (inactive) with UO-31; 12.5 µM (inactive) in the assay with SW-620; 21 µM (inactive) in the assay on SK-OV-3. Further, the GI50 is 15.9 µM (inactive) with ACHN; 18.5 µM (inactive) in the assay on COLO 205; 11.7 µM (inactive) with M14; 17 µM (inactive) in the assay with SN12C; 17 µM (inactive) in the assay on SNB-19; 5.78 µM (inactive) in the assay on MDA-MB-231.
Take `CN(Cc1ccccc1)C(=S)S` [SODIUM BENZYL(METHYL)CARBAMODITHIOATE]: the GI50 is 34 µM with HCT-15; 35.9 µM (inactive) in the assay with OVCAR-5; 70.6 µM (inactive) with MDA-N; 40.1 µM (inactive) in the assay with NCI-H460; 20 µM (inactive) with MOLT-4; 47 µM (inactive) with EKVX. Besides, the GI50 in the assay with T47D was 78.7 µM (inactive); with OVCAR-4, 28.4 µM (inactive); in the assay with DU-145 it was 53.5 µM (inactive); in the assay with HCT-116, 19.2 µM (inactive); with UO-31, 27.2 µM (inactive); in the assay with SW-620, 51.3 µM (inactive). Besides, the GI50 with SK-OV-3 is > 100 µM (inactive); with ACHN, 53.5 µM (inactive); with COLO 205 it was 57.3 µM (inactive); in the assay with M14, 23.3 µM (inactive); in the assay with SN12C, 52.4 µM (inactive); with MDA-MB-231 it was 88.5 µM (inactive).
